Blank lines part the entries; values can stand above or below the compound they belong to.
Tested on: SYO-1 complex spheroid growth, percent test/control
Assay: Anticancer human tumor SYO-1 cell line growth inhibition [Asc];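 further: compound exposure lasted 7 days after spheroids grew 3 days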;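 on viability, T/C: 100% = DMSO vehicle control viability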
Conditions: for IC50: curve of first compound; for viability, T/C: stronger effect = lower value
Summary of the method: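 Complex spheroids combining tumor cells with HUVEC endothelial cells and human MSCs, at 37 degrees C, 5% CO2; agents tested alone or combined, half-log dilutions from at or near clinical Cmax, or 10 microM if Cmax unknown.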

[1] = second compound 0.0316 µM, first compound 0.0316 µM
[2] = second compound 0.0316 µM, first compound 0.1 µM
[3] = second compound 0.0316 µM, first compound 0.316 µM
[4] = second compound 0.0316 µM, first compound 1 µM
[5] = second compound 0.0316 µM, first compound 3.16 µM
[6] = second compound 0.0316 µM, first compound 10 µM
[7] = second compound 0.1 µM, first compound 0.0316 µM
[8] = second compound 0.1 µM, first compound 0.1 µM
[9] = second compound 0.1 µM, first compound 0.316 µM
[10] = second compound 0.1 µM, first compound 1 µM
[11] = second compound 0.1 µM, first compound 3.16 µM
[12] = second compound 0.1 µM, first compound 10 µM
[13] = second compound 0.316 µM, first compound 0.0316 µM
[14] = second compound 0.316 µM, first compound 0.1 µM
[15] = second compound 0.316 µM, first compound 0.316 µM
[16] = second compound 0.316 µM, first compound 1 µM
[17] = second compound 0.316 µM, first compound 3.16 µM
[18] = second compound 0.316 µM, first compound 10 µM
[19] = second compound 1 µM, first compound 0.0316 µM
[20] = second compound 1 µM, first compound 0.1 µM
[21] = second compound 1 µM, first compound 0.316 µM
[22] = second compound 1 µM, first compound 1 µM
[23] = second compound 1 µM, first compound 3.16 µM
[24] = second compound 1 µM, first compound 10 µM

- IC50 (second compound 0.01 µM): 5650 nM
- IC50 (second compound 0.0316 µM): 5600 nM
- IC50 (second compound 0.1 µM): 5580 nM
- IC50 (second compound 0.316 µM): 5460 nM
- IC50 (second compound 1 µM): 5360 nM
SMILES: C=C(F)C(=O)N1CCN(c2nc(OCC3CCCN3C)nc3c2CCN(c2cccc4cccc(Cl)c24)C3)CC1CC#N (configuration not stated) + CNC(C)C(=O)NC1CN(S(=O)(=O)c2cccc(S(=O)(=O)N3CCC4CCC(C(=O)NC(c5ccccc5)c5ccccc5)N4C(=O)C(NC(=O)C(C)NC)C3)c2)CCC2CCC(C(=O)NC(c3ccccc3)c3ccccc3)N2C1=O
- viability, T/C (second compound 0.01 µM, first compound 0.0316 µM): 99.1%
- viability, T/C (second compound 0.01 µM, first compound 0.1 µM): 113%
- viability, T/C (second compound 0.01 µM, first compound 0.316 µM): 104%
- viability, T/C (second compound 0.01 µM, first compound 1 µM): 99.7%
- viability, T/C (second compound 0.01 µM, first compound 3.16 µM): 101%
- viability, T/C (second compound 0.01 µM, first compound 10 µM): 0.23%
- viability, T/C [1]: 96.7%
- viability, T/C [2]: 103%
- viability, T/C [3]: 101%
- viability, T/C [4]: 98.3%
- viability, T/C [5]: 99%
- viability, T/C [6]: 0.22%
- viability, T/C [7]: 100%
- viability, T/C [8]: 105%
- viability, T/C [9]: 95%
- viability, T/C [10]: 97.2%
- viability, T/C [11]: 98.6%
- viability, T/C [12]: 0.21%
- viability, T/C [13]: 98.5%
- viability, T/C [14]: 103%
- viability, T/C [15]: 103%
- viability, T/C [16]: 88.7%
- viability, T/C [17]: 95%
- viability, T/C [18]: 0.23%
- viability, T/C [19]: 104%
- viability, T/C [20]: 104%
- viability, T/C [21]: 101%
- viability, T/C [22]: 94.2%
- viability, T/C [23]: 92.3%
- viability, T/C [24]: 0.26%

- IC50 (second compound 0.01 µM): 146 nM
- IC50 (second compound 0.0316 µM): 120 nM
- IC50 (second compound 0.1 µM): 110 nM
- IC50 (second compound 0.316 µM): 115 nM
- IC50 (second compound 1 µM): 94.9 nM
SMILES: CCN1C(C(=O)NC23CCC(C(=O)O)(CC2)CC3)C(c2cccc(Cl)c2F)C2(C(=O)Nc3cc(Cl)ccc32)C12CCCCC2 (configuration not stated) + CNC(C)C(=O)NC1CN(S(=O)(=O)c2cccc(S(=O)(=O)N3CCC4CCC(C(=O)NC(c5ccccc5)c5ccccc5)N4C(=O)C(NC(=O)C(C)NC)C3)c2)CCC2CCC(C(=O)NC(c3ccccc3)c3ccccc3)N2C1=O
- viability, T/C (second compound 0.01 µM, first compound 0.00949 µM): 104%
- viability, T/C (second compound 0.01 µM, first compound 0.03 µM): 95%
- viability, T/C (second compound 0.01 µM, first compound 0.0949 µM): 71.8%
- viability, T/C (second compound 0.01 µM, first compound 0.3 µM): 13.8%
- viability, T/C (second compound 0.01 µM, first compound 0.949 µM): 1.75%
- viability, T/C (second compound 0.01 µM, first compound 3 µM): 0.88%
- viability, T/C (second compound 0.0316 µM, first compound 0.00949 µM): 98.9%
- viability, T/C (second compound 0.0316 µM, first compound 0.03 µM): 96.6%
- viability, T/C (second compound 0.0316 µM, first compound 0.0949 µM): 60.3%
- viability, T/C (second compound 0.0316 µM, first compound 0.3 µM): 9.46%
- viability, T/C (second compound 0.0316 µM, first compound 0.949 µM): 1.09%
- viability, T/C (second compound 0.0316 µM, first compound 3 µM): 0.76%
- viability, T/C (second compound 0.1 µM, first compound 0.00949 µM): 99.2%
- viability, T/C (second compound 0.1 µM, first compound 0.03 µM): 90.2%
- viability, T/C (second compound 0.1 µM, first compound 0.0949 µM): 56.5%
- viability, T/C (second compound 0.1 µM, first compound 0.3 µM): 10.5%
- viability, T/C (second compound 0.1 µM, first compound 0.949 µM): 0.93%
- viability, T/C (second compound 0.1 µM, first compound 3 µM): 0.63%
- viability, T/C (second compound 0.316 µM, first compound 0.00949 µM): 102%
- viability, T/C (second compound 0.316 µM, first compound 0.03 µM): 89.8%
- viability, T/C (second compound 0.316 µM, first compound 0.0949 µM): 59.6%
- viability, T/C (second compound 0.316 µM, first compound 0.3 µM): 8.45%
- viability, T/C (second compound 0.316 µM, first compound 0.949 µM): 0.85%
- viability, T/C (second compound 0.316 µM, first compound 3 µM): 0.95%
- viability, T/C (second compound 1 µM, first compound 0.00949 µM): 112%
- viability, T/C (second compound 1 µM, first compound 0.03 µM): 88.9%
- viability, T/C (second compound 1 µM, first compound 0.0949 µM): 54.7%
- viability, T/C (second compound 1 µM, first compound 0.3 µM): 5.93%
- viability, T/C (second compound 1 µM, first compound 0.949 µM): 0.81%
- viability, T/C (second compound 1 µM, first compound 3 µM): 0.72%

- IC50 (second compound 0.0316 µM): 1840 nM
- IC50 (second compound 0.1 µM): 1850 nM
- IC50 (second compound 0.316 µM): 1630 nM
- IC50 (second compound 1 µM): 1640 nM
- IC50 (second compound 3.16 µM): 1170 nM
- IC50 (second compound 10 µM): 613 nM
SMILES: O=C(c1cc(Cc2n[nH]c(=O)c3ccccc23)ccc1F)N1CCN(C(=O)C2CC2)CC1 + Cc1c(S(C)(=O)=O)c(-c2cc(F)cc(N3CCN(c4ccc(NS(=O)(=O)c5ccc(NC(CCN6CCC(C(=O)OCCCP(=O)(O)O)CC6)CSc6ccccc6)c(S(=O)(=O)C(F)(F)F)c5)cc4)CC3)c2)c(-c2ccc(Cl)cc2)n1C(C)C
- viability, T/C [1]: 106%
- viability, T/C [2]: 90.1%
- viability, T/C [3]: 96.5%
- viability, T/C [4]: 85.1%
- viability, T/C [5]: 18.6%
- viability, T/C [6]: 4.21%
- viability, T/C [7]: 105%
- viability, T/C [8]: 93.3%
- viability, T/C [9]: 89.7%
- viability, T/C [10]: 92.5%
- viability, T/C [11]: 13.1%
- viability, T/C [12]: 3.38%
- viability, T/C [13]: 95.6%
- viability, T/C [14]: 92%
- viability, T/C [15]: 95.7%
- viability, T/C [16]: 82.2%
- viability, T/C [17]: 6.13%
- viability, T/C [18]: 2.3%
- viability, T/C [19]: 89.7%
- viability, T/C [20]: 108%
- viability, T/C [21]: 87.2%
- viability, T/C [22]: 84.9%
- viability, T/C [23]: 4.13%
- viability, T/C [24]: 1.66%
- viability, T/C (second compound 3.16 µM, first compound 0.0316 µM): 93.4%
- viability, T/C (second compound 3.16 µM, first compound 0.1 µM): 88.7%
- viability, T/C (second compound 3.16 µM, first compound 0.316 µM): 83.9%
- viability, T/C (second compound 3.16 µM, first compound 1 µM): 57.7%
- viability, T/C (second compound 3.16 µM, first compound 3.16 µM): 2.51%
- viability, T/C (second compound 3.16 µM, first compound 10 µM): 1.72%
- viability, T/C (second compound 10 µM, first compound 0.0316 µM): 83.7%
- viability, T/C (second compound 10 µM, first compound 0.1 µM): 81.1%
- viability, T/C (second compound 10 µM, first compound 0.316 µM): 69.8%
- viability, T/C (second compound 10 µM, first compound 1 µM): 35.9%
- viability, T/C (second compound 10 µM, first compound 3.16 µM): 2.29%
- viability, T/C (second compound 10 µM, first compound 10 µM): 2.09%
